Experimental data taken from PubChem BioAssay (NCI).
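The compound was tested at five concentrations on cells cultured in 96-well plates, with a 48-hour exposure period. The concentration for 50% growth inhibition is given as GI50. At the TGI there is no net growth.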

Columns and labels:
Test in all cases: inhibition of tumour cell growth, NCI panel, 48 h
MDA-MB-435 = tested on: MDA-MB-435
DU-145 prostate = tested on: DU-145 prostate
SF-539 CNS = tested on: SF-539 CNS
HCT-116 colon = tested on: HCT-116 colon
BT-549 breast = tested on: BT-549 breast
MDA-N = tested on: MDA-N
MCF7 breast = tested on: MCF7 breast
MDA-MB-231 breast = tested on: MDA-MB-231 breast
PC-3 prostate = tested on: PC-3 prostate
DLD-1 colon = tested on: DLD-1 colon
DMS 273 small cell lung = tested on: DMS 273 small cell lung
SNB-78 CNS = tested on: SNB-78 CNS
XF 498 CNS = tested on: XF 498 CNS
HOP-18 NSCLC = tested on: HOP-18 NSCLC

Compound | GI50 (MDA-MB-435) | TGI (MDA-MB-435) | GI50 (DU-145 prostate) | TGI (DU-145 prostate) | TGI (SF-539 CNS) | TGI (HCT-116 colon) | TGI (BT-549 breast) | TGI (MDA-N) | TGI (MCF7 breast) | TGI (MDA-MB-231 breast) | TGI (PC-3 prostate) | TGI (DLD-1 colon) | TGI (DMS 273 small cell lung) | TGI (SNB-78 CNS) | TGI (XF 498 CNS) | TGI (HOP-18 NSCLC) | GI50 (SF-539 CNS) | GI50 (BT-549 breast) | GI50 (MDA-MB-231 breast) | GI50 (PC-3 prostate)
COc1cc2c3c(n(C4CCNCC4)c(=O)c2cc1OC)-c1cc2c(cc1C3=O)OCO2 | 1.19 µM | 2.6 µM | 0.423 µM | 1.55 µM |  |  |  |  |  |  |  |  |  |  |  |  |  |  |  | 
CC1(C)N=C(N)N=C(N)N1c1cccc(OCc2cccc([N+](=O)[O-])c2)c1 |  | > 100 µM |  | > 100 µM | > 79.4 µM | > 100 µM | > 100 µM | > 100 µM | > 100 µM | > 100 µM | > 82.7 µM |  |  |  |  |  |  |  |  | 
Nc1nncs1 |  | > 5000 µM |  | > 5000 µM | > 5000 µM | > 5000 µM | > 5000 µM | > 5000 µM | > 5000 µM | > 5000 µM | > 5000 µM | > 5000 µM | > 5000 µM | > 4420 µM | 3890 µM | > 5000 µM |  |  |  | 
O=C(O)C(Br)Cc1ccc2c(c1)OCO2 (stereo not given) |  |  |  |  | > 100 µM | > 100 µM |  |  |  |  |  | > 100 µM |  | > 100 µM | 89.3 µM |  |  |  |  | 
CSc1sc(=S)sc1SC |  |  |  |  | > 100 µM | > 100 µM |  |  | > 100 µM |  |  | > 100 µM | > 100 µM | > 100 µM | > 100 µM | > 100 µM |  |  |  | 
COc1cc2c3c(c4cc(OC)c(OC)cc4c2cc1OC)[C@H](O)[C@@H]1CCCN1C3 |  | 2.86 µM |  | 1.45 µM |  | 7.64 µM | 9.63 µM |  |  | 0.562 µM | 1.98 µM |  |  |  |  |  |  |  |  | 
COc1ccc(/C=C/[N+](=O)[O-])cc1 |  | 4.21 µM |  | 20.3 µM | 4.92 µM | > 100 µM |  |  | 5.83 µM | 55.3 µM |  |  |  |  |  |  |  |  |  | 
O=C(O)CNCc1c2ccccc2[n+]([O-])c2ccccc12 |  |  |  |  |  | > 100 µM |  |  |  |  |  | > 100 µM | > 100 µM | > 100 µM |  | > 100 µM |  |  |  | 
COC(=O)c1nc2c3c(cccc3c1C(=O)OC)Nc1ccccc1-2 |  | > 100 µM |  | > 100 µM | > 100 µM | > 100 µM | > 100 µM | > 100 µM | > 100 µM | > 100 µM | 82.1 µM |  |  |  |  |  |  |  |  | 
COc1ccc(/C(Cl)=C(\C=O)c2ccc(Cl)c(Cl)c2)cc1OC |  |  |  |  | 19.2 µM | 15.2 µM |  |  |  |  |  | 20.3 µM | 21.7 µM | 31.2 µM | 7.95 µM |  |  |  |  | 
C#C[C@@]1(O)[C@@H](CO)O[C@@H](n2cc(F)c3c(N)ncnc32)[C@@H]1O | 0.416 µM | 3.26 µM | 0.354 µM | 13.4 µM | 5.29 µM |  | 4.18 µM |  |  | 2.98 µM | 3.24 µM |  |  |  |  |  | 1.31 µM | 0.843 µM | 0.379 µM | 0.293 µM
S=C1NN=C2C(=C3CCCC4C5CCCCC5N2C34)N1 (stereo not given) |  |  |  | > 100 µM |  |  | > 100 µM |  | > 100 µM |  |  |  |  |  |  |  |  |  |  | 
C[C@H](CCC1=NCCN1)[C@H]1CC[C@H]2[C@@H]3CC[C@@H]4C[C@H](O)CC[C@]4(C)[C@H]3CC[C@]12C |  | 22 µM |  | 35.8 µM | > 58.1 µM | > 36.9 µM | 33.4 µM | 29.5 µM | > 57.4 µM | > 41 µM | 28.4 µM |  |  |  |  |  |  |  |  | 
O=C(O)Cc1[nH]cnc1C(=O)O |  | > 100 µM |  | > 100 µM | > 100 µM | > 100 µM | > 100 µM | > 100 µM | > 100 µM | > 100 µM | > 100 µM |  |  |  |  |  |  |  |  | 
